Assay results from paper PMC7998250, “Temperate Zone Plant Natural Products—A Novel Resource for Activity against Tropical Parasitic Diseases” (Pharmaceuticals, 2021).

Columns and labels:
[1] = system: WT L. mexicana procyclic promastigotes; test: EC50 in WT L. mexicana promastigotes; assay type: cell-based; details: Leishmania mexicana, read-out: EC50 in WT promastigotes
Description: (§1) A 700022-resistant line of L. mexicana (r22) was generated using a previously reported method (Figure S3). […] All leishmanicidal sterols identified were assayed against r22 after 8 weeks of 700022 pressure and cross-resistance was found against all four compounds, each with a similar resistance index of between 4–5 (Figure 6c). Following 28 weeks of selection, the morphology of the r22 promastigotes was compared to that of WT (Figure 6d). […] The body area of both promastigotes and amastigotes was also assessed, noting a small (c 20%) decrease in the body area of r22 parasites compared to WT strains (Figure S3).
(§2) L. mexicana parasites were grown in increasing concentrations of 700022 in a stepwise manner, as previously described. […] A dose response assay of the newly selected promastigotes was completed as stated above, with the exception of the seeding density of 1 × 10^5 cells/mL. At this point, the drug pressure was increased to the concentration of the new EC50 value.

[2] = system: L. mexicana intramacrophage amastigotes; test: L. mexicana intramacrophage assay (NanoLuc PEST strain in THP-1); assay type: cell-based, Leishmania mexicana
Excerpt: Figure S4: Leishmania intramacrophage assays. […] Data represents the mean and standard deviation (n=4). B Average number of parasites per macrophage in the same experiment as A. A Kruskal-Wallis test followed by Dunn’s multiple comparison test was used to determine a significant difference (p<0.05) of each treatment to the untreated control and have been indicated with those being significant marked with an asterix. C Comparing 700022 activity between axenic amastigotes (red) and intramacrophage amastigotes (blue). Concentration–response curves for compound 700022 against: intracellular L. mexicana NanoLuc-PEST-transgenic line (blue), axenic amastigotes of NanoLuc-PEST-transgenic line (red) as well as the human cell lines HepG2 (green) and THP-1 (black). The data for the intracellular L. mexicana NanoLuc-PEST-transgenic line represent one biological repeat of three technical repeats.

[3] = system: L. mexicana r22 promastigotes; test: EC50 in 700022-resistant L. mexicana (r22) promastigotes; assay type: cell-based; details: Leishmania mexicana, read-out: EC50 in r22 promastigotes, after 28 weeks of 700022 selection
Description: as §1, §2

HepG2 cells = test: Cytotoxicity CC50, HepG2, Alamar Blue; details: read-out: HepG2 CC50; 48 h
In short: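 Human hepatoma cells seeded at 1 × 10^5 cells/mL with two-fold serial compound dilutions, incubated 48 h at 37 °C, 5% CO2 in DMEM/10% FBS. Viability read by Alamar Blue. CC50 estimated from viability normalised to untreated controls versus log concentration.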

[4] = factor, relative to intramacrophage amastigote EC50

| SMILES | EC50 [1] [µM] | EC50 ([2]; Leishmania mexicana, L. mexicana NanoLuc PEST strain in THP-1) [µM] | selectivity over HepG2 [2, 4] | selectivity over THP-1 [2, 4] | EC50 [3] [µM] | CC50 (HepG2 cells) [µM] |
| --- | --- | --- | --- | --- | --- | --- |
| CC1=CC(O)(CC(C)C2(C)CC=C3C4=CCC5C(C)(C)C(O)CCC5(C)C4CCC32C)OC1=O (stereo not shown) [Compound 700022] | 11.5 | 10.7 | 2.7 | 1.6 | 85.6 | – |
| C=C1C(=O)OC2CC(C)C3C=CC(=O)C3(C)C(OC(C)=O)C12 (stereo not shown) [Compound 701155] | – | – | – | – | – | 1.1 |
| C=C1C(=O)OC2CC(C)C3C=CC(=O)C3(C)C(OC(=O)C(C)CC)C12 (stereo not shown) [Compound 701158] | – | – | – | – | – | 0.81 |
